Numbers after ± are expanded uncertainties.
What was measured:
[1] = relative permittivity at zero frequency (dimensionless); xn = mol fraction of the nth substance listed; details: 101 kPa, Liquid, Dekameter
[2] = xn = mol fraction of the nth substance listed; details: 101 kPa, Liquid
[3] = refractive index (Na D-line) (dimensionless); xn = mol fraction of the nth substance listed; details: 101 kPa, Liquid

O=C1CCCO1 [γ-butyrolactone] + CCC(C)O
Details | mass density [kg/m3] | refractive index | relative permittivity at zero frequency
[1], 293.15 K, x1 = 0.1009 | – | – | 17.91 ± 0.06
[1], 293.15 K, x1 = 0.2112 | – | – | 19.08 ± 0.06
[1], 293.15 K, x1 = 0.3009 | – | – | 20.56 ± 0.06
[1], 293.15 K, x1 = 0.4008 | – | – | 22.53 ± 0.06
[1], 293.15 K, x1 = 0.5088 | – | – | 25.16 ± 0.06
[1], 293.15 K, x1 = 0.6003 | – | – | 27.69 ± 0.06
[1], 293.15 K, x1 = 0.7001 | – | – | 30.91 ± 0.06
[1], 293.15 K, x1 = 0.8055 | – | – | 34.66 ± 0.06
[1], 293.15 K, x1 = 0.9011 | – | – | 38.29 ± 0.06
[1], 298.15 K, x1 = 0.1009 | – | – | 16.66 ± 0.06
[1], 298.15 K, x1 = 0.2112 | – | – | 17.89 ± 0.06
[1], 298.15 K, x1 = 0.3009 | – | – | 19.48 ± 0.06
[1], 298.15 K, x1 = 0.4008 | – | – | 21.48 ± 0.06
[1], 298.15 K, x1 = 0.5088 | – | – | 24.01 ± 0.06
[1], 298.15 K, x1 = 0.6003 | – | – | 26.59 ± 0.06
[1], 298.15 K, x1 = 0.7001 | – | – | 29.67 ± 0.06
[1], 298.15 K, x1 = 0.8055 | – | – | 33.02 ± 0.06
[1], 298.15 K, x1 = 0.9011 | – | – | 37.47 ± 0.06
[1], 303.15 K, x1 = 0.1009 | – | – | 16.75 ± 0.06
[1], 303.15 K, x1 = 0.2112 | – | – | 18.21 ± 0.06
[1], 303.15 K, x1 = 0.3009 | – | – | 19.37 ± 0.06
[1], 303.15 K, x1 = 0.4008 | – | – | 21.28 ± 0.06
[1], 303.15 K, x1 = 0.5088 | – | – | 23.71 ± 0.06
[1], 303.15 K, x1 = 0.6003 | – | – | 26.26 ± 0.06
[1], 303.15 K, x1 = 0.7001 | – | – | 29.48 ± 0.06
[1], 303.15 K, x1 = 0.8055 | – | – | 33.39 ± 0.06
[1], 303.15 K, x1 = 0.9011 | – | – | 36.73 ± 0.06
[1], 313.15 K, x1 = 0.1009 | – | – | 16.09 ± 0.06
[1], 313.15 K, x1 = 0.2112 | – | – | 17.48 ± 0.06
[1], 313.15 K, x1 = 0.3009 | – | – | 18.55 ± 0.06
[1], 313.15 K, x1 = 0.4008 | – | – | 20.43 ± 0.06
[1], 313.15 K, x1 = 0.5088 | – | – | 22.86 ± 0.06
[1], 313.15 K, x1 = 0.6003 | – | – | 25.55 ± 0.06
[1], 313.15 K, x1 = 0.7001 | – | – | 28.79 ± 0.06
[1], 313.15 K, x1 = 0.8055 | – | – | 32.73 ± 0.06
[1], 313.15 K, x1 = 0.9011 | – | – | 36.05 ± 0.06
[2], 293.15 K, x1 = 0.0564 | 820.99 ± 0.45 | – | –
[2], 293.15 K, x1 = 0.1213 | 839.11 ± 0.43 | – | –
[2], 293.15 K, x1 = 0.2541 | 877.55 ± 0.39 | – | –
[2], 293.15 K, x1 = 0.3003 | 891.34 ± 0.38 | – | –
[2], 293.15 K, x1 = 0.3895 | 918.62 ± 0.35 | – | –
[2], 293.15 K, x1 = 0.4574 | 939.95 ± 0.34 | – | –
[2], 293.15 K, x1 = 0.5005 | 953.71 ± 0.32 | – | –
[2], 293.15 K, x1 = 0.5876 | 982.13 ± 0.3 | – | –
[2], 293.15 K, x1 = 0.6442 | 1001.11 ± 0.29 | – | –
[2], 293.15 K, x1 = 0.7127 | 1024.55 ± 0.34 | – | –
[2], 293.15 K, x1 = 0.8006 | 1055.41 ± 0.41 | – | –
[2], 293.15 K, x1 = 0.8554 | 1075.08 ± 0.46 | – | –
[2], 293.15 K, x1 = 0.9262 | 1101.09 ± 0.53 | – | –
[2], 293.15 K, x1 = 0.9785 | 1120.58 ± 0.58 | – | –
[2], 298.15 K, x1 = 0.0564 | 817.52 ± 0.46 | – | –
[2], 298.15 K, x1 = 0.1213 | 835.59 ± 0.44 | – | –
[2], 298.15 K, x1 = 0.2541 | 873.9 ± 0.4 | – | –
[2], 298.15 K, x1 = 0.3003 | 887.63 ± 0.39 | – | –
[2], 298.15 K, x1 = 0.3895 | 914.8 ± 0.36 | – | –
[2], 298.15 K, x1 = 0.4574 | 936.03 ± 0.34 | – | –
[2], 298.15 K, x1 = 0.5005 | 949.73 ± 0.33 | – | –
[2], 298.15 K, x1 = 0.5876 | 978.07 ± 0.31 | – | –
[2], 298.15 K, x1 = 0.6442 | 996.91 ± 0.29 | – | –
[2], 298.15 K, x1 = 0.7127 | 1020.25 ± 0.34 | – | –
[2], 298.15 K, x1 = 0.8006 | 1050.96 ± 0.41 | – | –
[2], 298.15 K, x1 = 0.8554 | 1070.55 ± 0.45 | – | –
[2], 298.15 K, x1 = 0.9262 | 1096.44 ± 0.52 | – | –
[2], 298.15 K, x1 = 0.9785 | 1115.89 ± 0.57 | – | –
[2], 303.15 K, x1 = 0.0564 | 814 ± 0.46 | – | –
[2], 303.15 K, x1 = 0.1213 | 831.99 ± 0.44 | – | –
[2], 303.15 K, x1 = 0.2541 | 870.15 ± 0.4 | – | –
[2], 303.15 K, x1 = 0.3003 | 883.83 ± 0.39 | – | –
[2], 303.15 K, x1 = 0.3895 | 910.88 ± 0.36 | – | –
[2], 303.15 K, x1 = 0.4574 | 932.02 ± 0.34 | – | –
[2], 303.15 K, x1 = 0.5005 | 945.67 ± 0.33 | – | –
[2], 303.15 K, x1 = 0.5876 | 973.9 ± 0.31 | – | –
[2], 303.15 K, x1 = 0.6442 | 992.68 ± 0.3 | – | –
[2], 303.15 K, x1 = 0.7127 | 1015.92 ± 0.33 | – | –
[2], 303.15 K, x1 = 0.8006 | 1046.52 ± 0.4 | – | –
[2], 303.15 K, x1 = 0.8554 | 1066.03 ± 0.44 | – | –
[2], 303.15 K, x1 = 0.9262 | 1091.83 ± 0.51 | – | –
[2], 303.15 K, x1 = 0.9785 | 1111.21 ± 0.56 | – | –
[2], 313.15 K, x1 = 0.0564 | 805.57 ± 0.48 | – | –
[2], 313.15 K, x1 = 0.1213 | 823.45 ± 0.46 | – | –
[2], 313.15 K, x1 = 0.2541 | 861.53 ± 0.41 | – | –
[2], 313.15 K, x1 = 0.3003 | 875.2 ± 0.4 | – | –
[2], 313.15 K, x1 = 0.3895 | 902.14 ± 0.38 | – | –
[2], 313.15 K, x1 = 0.4574 | 923.19 ± 0.36 | – | –
[2], 313.15 K, x1 = 0.5005 | 936.83 ± 0.35 | – | –
[2], 313.15 K, x1 = 0.5876 | 964.91 ± 0.32 | – | –
[2], 313.15 K, x1 = 0.6442 | 983.59 ± 0.31 | – | –
[2], 313.15 K, x1 = 0.7127 | 1006.75 ± 0.31 | – | –
[2], 313.15 K, x1 = 0.8006 | 1037.12 ± 0.38 | – | –
[2], 313.15 K, x1 = 0.8554 | 1056.44 ± 0.43 | – | –
[2], 313.15 K, x1 = 0.9262 | 1081.97 ± 0.49 | – | –
[2], 313.15 K, x1 = 0.9785 | 1101.4 ± 0.54 | – | –
[3], 293.15 K, x1 = 0.1009 | – | 1.4004 ± 0.0012 | –
[3], 293.15 K, x1 = 0.2112 | – | 1.4009 ± 0.0012 | –
[3], 293.15 K, x1 = 0.3009 | – | 1.4021 ± 0.0012 | –
[3], 293.15 K, x1 = 0.4008 | – | 1.4043 ± 0.0012 | –
[3], 293.15 K, x1 = 0.5088 | – | 1.4076 ± 0.0012 | –
[3], 293.15 K, x1 = 0.6003 | – | 1.4112 ± 0.0013 | –
[3], 293.15 K, x1 = 0.7001 | – | 1.4162 ± 0.0013 | –
[3], 293.15 K, x1 = 0.8055 | – | 1.4221 ± 0.0013 | –
[3], 293.15 K, x1 = 0.9011 | – | 1.4285 ± 0.0013 | –
[3], 298.15 K, x1 = 0.1009 | – | 1.3976 ± 0.0012 | –
[3], 298.15 K, x1 = 0.2112 | – | 1.3978 ± 0.0012 | –
[3], 298.15 K, x1 = 0.3009 | – | 1.3986 ± 0.0012 | –
[3], 298.15 K, x1 = 0.4008 | – | 1.4005 ± 0.0012 | –
[3], 298.15 K, x1 = 0.5088 | – | 1.4036 ± 0.0012 | –
[3], 298.15 K, x1 = 0.6003 | – | 1.4071 ± 0.0013 | –
[3], 298.15 K, x1 = 0.7001 | – | 1.4119 ± 0.0013 | –
[3], 298.15 K, x1 = 0.8055 | – | 1.4175 ± 0.0013 | –
[3], 298.15 K, x1 = 0.9011 | – | 1.4236 ± 0.0013 | –
[3], 303.15 K, x1 = 0.1009 | – | 1.394 ± 0.0012 | –
[3], 303.15 K, x1 = 0.2112 | – | 1.3943 ± 0.0012 | –
[3], 303.15 K, x1 = 0.3009 | – | 1.3952 ± 0.0012 | –
[3], 303.15 K, x1 = 0.4008 | – | 1.3974 ± 0.0012 | –
[3], 303.15 K, x1 = 0.5088 | – | 1.4004 ± 0.0012 | –
[3], 303.15 K, x1 = 0.6003 | – | 1.4036 ± 0.0013 | –
[3], 303.15 K, x1 = 0.7001 | – | 1.4082 ± 0.0013 | –
[3], 303.15 K, x1 = 0.8055 | – | 1.4135 ± 0.0013 | –
[3], 303.15 K, x1 = 0.9011 | – | 1.4195 ± 0.0013 | –
[3], 313.15 K, x1 = 0.1009 | – | 1.3909 ± 0.0012 | –
[3], 313.15 K, x1 = 0.2112 | – | 1.3906 ± 0.0012 | –
[3], 313.15 K, x1 = 0.3009 | – | 1.3912 ± 0.0012 | –
[3], 313.15 K, x1 = 0.4008 | – | 1.3925 ± 0.0012 | –
[3], 313.15 K, x1 = 0.5088 | – | 1.3952 ± 0.0012 | –
[3], 313.15 K, x1 = 0.6003 | – | 1.3984 ± 0.0013 | –
[3], 313.15 K, x1 = 0.7001 | – | 1.4023 ± 0.0013 | –
[3], 313.15 K, x1 = 0.8055 | – | 1.4078 ± 0.0013 | –
[3], 313.15 K, x1 = 0.9011 | – | 1.4133 ± 0.0013 | –

Source: the NIST ThermoML archive (doi:10.1021/je900503p)
